Laboratory results: US12550899B2, “Topramezone derivative and use thereof” (priority 2023, dated 2026)

Test system: corn
Test: Corn safety laboratory test, visual observation and overall conclusion
Assay type: in vivo
Protocol: Three corn varieties: Zhengdan 958, white waxy corn, and sweet corn (Runhua sweet corn).
The soil used for the test was a mixture of surface 20 cm loam and vermiculite, mixed in a volume ratio of 3:1 to form a culture soil. The test corn was cultured in a glass greenhouse with a temperature ranging from 25° C. to 35° C. and under natural light.
A measured quantity of corn seeds were sown in plastic pots with a diameter of 15 cm, and covered with 2-3 cm of soil. The ports were then placed in enamel trays filled with water, and watered by bottom irrigation. After sowing, the pots were transferred to the glass greenhouse for cultivation and growth.
In the corn safety test, dosages were set for the two Compounds (Compound I of the present invention and Compound II of the present invention) and the control herbicide Topramezone, which were 15, 30, 60, and 120 grams of active ingredient per hectare respectively. In addition, a blank control was also prepared.
The required amount of the herbicide was accurately measured out, an appropriate amount of emulsifier and organic solvent were added to dissolve the herbicide, and then a certain amount of water was added therein until the herbicide was diluted to the required dosage by using the serial dilution method for standby.
Corn stems and leaves were uniformly sprayed at the 3-4-leaf stage.
The ASS-3 automatic control spraying system with a fan-shaped nozzle was used indoors for herbicide application. Depending on the nozzle pressure and flow rate, 50 mL of herbicide solution was applied to a spraying area of 1.1 m^2 (which was equivalent to the water consumption of 30 L per mu). The system's operating speed was calibrated. The plastic pots to be treated were arranged evenly on the spraying platform to ensure uniform treatment. The spray pressure was set to 0.35 MPa, and the flow rate of the fan-shaped nozzle was set to 800 mL/min. The spraying was carried out in sequence from the low dosage to the high dosage. Each treatment was repeated three times.
The herbicide was applied once. After spraying, the pots were air-dried for one day and then placed in the glass greenhouse. Regular watering was conducted to maintain moisture.
After application of the herbicide, whether there were any phytotoxic symptoms in the corn for each treatment was recorded. If yes, the phytotoxicity symptoms and grade were recorded in detail. 15 days after application, the fresh weight of the corn in each treatment was measured and the fresh weight control efficacy was calculated to assess the safety of the herbicide on the corn.

Cc1c(C(=O)c2cnn(C)c2O)ccc(S(C)(=O)=O)c1C1=NOCC1 [Topramezone]
Visual observation of corn (3 to 7 days after application): safe for corn
Visual observation of corn (10 days after application): safe for corn
Visual observation of corn (15 days after application): basically growing normally
Overall safety for corn (Zhengdan 958, waxy corn and sweet corn): high safety levels

COC(=O)OC(C)Oc1c(C(=O)c2ccc(S(C)(=O)=O)c(C3=NOCC3)c2C)cnn1C (centres unmarked) [Compound I, 1-((4-(3-(4,5-dihydroisoxazol-3-yl)-2-methyl-4-(methylsulfonyl)benzoyl)-1-methyl-1H-pyrazol-5-yl)oxy)ethyl methyl carbonate]
Visual observation of corn (in vivo): all normal
